Reference: patent publication US20220002288A1, “MONOBACTAM COMPOUNDS AND USE THEREFOR” (priority 2018, published 2022)
≈ marks a conversion by molar mass, not a printed value. Where a name gives a salt, the structure may show the parent alone.

What was measured:
Assay in all cases: In vitro antibacterial activity, minimum inhibitory concentration (MIC)
Type in all cases: cell-based
[1] = test system: Acinetobacter baumannii
Protocol: (§1) Compounds: The compounds prepared in the above examples and comparative examples. All test compounds were dissolved and diluted with DMSO, and the final concentrations were prepared as 64, 32, 16, 8, 4, 2, 1, 0.5, 0.25, 0.125, 0.0625 μg/mL in the experiment.
(§2) Bacterial strains: 6 strains of Acinetobacter baumannii (codenames: HDBAB-YK4, HDBAB-YK7, HDBAB-YK12, HDBAB-YK16, HDBAB_OXA_7, ATCC 19606), 2 strains of Pseudomonas aeruginosa (codenames: HDBPA-YK9, HDBPA)-YK15), 1 strain of Escherichia coli (codename: CLB30048), all provided by HD Biosciences (Shanghai) Co., Ltd.
(§3) Medium: Trypticase soy agar (TSA) (BD BBL 211043), and Cation-adjusted Mueller Hinton broth (CAMHB) (BD BBL212322).
(§4) The bacteria used for the minimum inhibitory concentration (MIC) test were stored frozen at −80° C., and needed 2 days to recover before use. A small amount of frozen bacteria was scraped with a sterile inoculation loop for streak inoculation on a TSA solid medium petri dish. The dish was placed in an ordinary incubator at 35±2° C. for 20-24 hours. 5-10 Colonies with similar morphologies were picked from the above-mentioned petri dish with a sterile inoculating loop for streak inoculation again on a TSA solid medium petri dish. The dish was then placed in an ordinary incubator at 35±2° C. for 20-24 hours.
(§5) 1.02×CAMHB liquid medium was taken out from a 4° C. refrigerator and placed at room temperature for preheating. 5-10 Individual bacterial colonies were picked from the solid petri dish of the above Section 2.1 and re-suspended in 500 μL of 0.9% NaCl, and then the OD600 was adjusted to 0.1-0.15 with a spectrophotometer. Then the bacteria were diluted 400 times with 1.02×CAMHB (two-step dilution method: firstly diluting 10 times, then diluting 40 times).
(§6) The number of inoculated bacteria can be obtained by counting the colonies on the petri dish (see Section 2.4).
(§7) One compound was arranged in each row of a 96-well test plate: the highest test concentration for each compound was 64 μg/mL, which was diluted by a factor of two.
(§8) Growth control (GC): 1.02×CAMHB and dimethyl sulfoxide (DMSO) containing bacterial inoculum, no compound.
(§9) Sterile control (SC): Containing 1.02×CAMHB and DMSO, no compound.
(§10) All test compounds were dissolved and diluted with DMSO. 50 μL of 3.2 mg/mL of each test compound was transferred to the initial well (A1-H1) of the dilution plate, and then 25 μL of DMSO was transferred to other wells. The test compounds were sequentially diluted by a factor of 2 from column 1 to column 11 (i.e. drawing 25 μL of test compound from column 1 to column 2 and mixing well, and then drawing 25 μL of test compound from column 2 to column 3 and mixing well, and then drawing 25 μL of test compound from column 3 to column 4 and mixing well, and so on, until diluting to column 11).
(§11) 2 μL of the compound was transferred from the compound plate to the corresponding well of the test plate. Meanwhile, 2 μL of 100% DMSO was transferred to the compound-free wells (the GC and SC wells).
(§12) 98 μL of the corresponding bacterial inoculum was added to the test plate (except for the SC well).
(§13) 98 μL of 1.02×CAMHB medium was added to the SC well of the test plate.
(§14) After the system was added, the test plate was covered with a sterile lid, centrifuged at 800 rpm for 30 seconds, then shaken on a plate shaker at 400 rpm for 1 minute for mixing well, and then placed in an incubator at 35±2° C. for 20 hours.
(§15) The inoculated bacteria were gradient diluted by 10 folds with the liquid medium, from 10^−1 to 10^−3. 100 μL of the above bacterial dilution was spread evenly on a TSA petri dish, 2 replicates for each dilution. After the medium was absorbed by TSA for 10 minutes, the petri dishes were reversed and incubated in an incubator at 35±2° C. for 24 hours.
(§16) A compound management system was turned on to check whether the barcode and compound arrangement of each test plate were correct. […]

[2] = test system: Escherichia coli; conditions: strain CLB30048, read-out: MIC
Protocol: as §1, §2, §3, §4, §5, §6, §7, §8, §9, §10, §11, §12, §13, §14, §15, §16

[3] = test system: Pseudomonas aeruginosa
Protocol: as §1, §2, §3, §4, §5, §6, §7, §8, §9, §10, §11, §12, §13, §14, §15, §16

SMILES	MIC ([1]; ATCC19606, strain ATCC 19606)	MIC ([1]; strain HDBAB-YK4)	MIC ([1]; strain HDBAB-YK7)	MIC ([1]; strain HDBAB-YK12)	MIC ([1]; strain HDBAB-YK16)	MIC ([1]; strain HDBAB_OXA_7)	MIC [2]	MIC ([3]; strain HDBPA-YK9)	MIC ([3]; strain HDBPA-YK15)
CC1(C)[C@H](NC(=O)/C(=N\O[C@@H](COc2ccc(-c3ccc(NC(=O)[C@@H](N)CCCCN)nc3)cc2)C(=O)O)c2csc(N)n2)C(=O)N1OS(=O)(=O)O [Example 5, (S)-2-((((Z)-1-(2-aminothiazol-4-yl)-2-(((S)-2,2-dimethyl-4-oxo-1-(sulfonyloxy)azetidin-3-yl)amino)-2-oxoethylene)amino)oxy)-3-(4-(6-((S)-2,6-diaminohexanamido)pyridin-3-yl)phenoxy)propionic Acid]	8 µg/mL (≈ 10.5 µM)	32 µg/mL (≈ 41.9 µM)	> 64 µg/mL	4 µg/mL (≈ 5.24 µM)	64 µg/mL (≈ 83.8 µM)	16 µg/mL (≈ 20.9 µM)	8 µg/mL (≈ 10.5 µM)	32 µg/mL (≈ 41.9 µM)	> 64 µg/mL
C[n+]1cc(-c2ccc(OC[C@H](O/N=C(\C(=O)N[C@@H]3C(=O)N(OS(=O)(=O)[O-])C3(C)C)c3csc(N)n3)C(=O)O)cc2)ccc1NC(=O)[C@@H](N)CO [Example 6]	64 µg/mL (≈ 86.9 µM)	32 µg/mL (≈ 43.4 µM)	64 µg/mL (≈ 86.9 µM)	4 µg/mL (≈ 5.43 µM)	> 64 µg/mL	32 µg/mL (≈ 43.4 µM)	32 µg/mL (≈ 43.4 µM)	64 µg/mL (≈ 86.9 µM)	> 64 µg/mL
CC1(C)[C@H](NC(=O)/C(=N\O[C@@H](COc2ccc(-c3ccc(NC(=O)[C@@H](N)CO)nc3)cc2)C(=O)O)c2csc(N)n2)C(=O)N1OS(=O)(=O)O [Example 7]	64 µg/mL (≈ 88.6 µM)	> 64 µg/mL	> 64 µg/mL	16 µg/mL (≈ 22.1 µM)	> 64 µg/mL	> 64 µg/mL	64 µg/mL (≈ 88.6 µM)	32 µg/mL (≈ 44.3 µM)	> 64 µg/mL
C[n+]1cc(-c2ccc(OC[C@H](O/N=C(\C(=O)N[C@@H]3C(=O)N(OS(=O)(=O)[O-])C3(C)C)c3csc(N)n3)C(=O)O)cc2)ccc1NC(=O)[C@H](N)CCCCN [Example 8]	2 µg/mL (≈ 2.57 µM)	4 µg/mL (≈ 5.14 µM)	1 µg/mL (≈ 1.29 µM)	2 µg/mL (≈ 2.57 µM)	16 µg/mL (≈ 20.6 µM)	8 µg/mL (≈ 10.3 µM)	8 µg/mL (≈ 10.3 µM)	16 µg/mL (≈ 20.6 µM)	> 64 µg/mL
CC1(C)[C@H](NC(=O)/C(=N\O[C@@H](CCCOc2ccc(-c3cn(CCCN)[n+](CC4CNC4)c3)cc2)C(=O)O)c2csc(N)n2)C(=O)N1OS(=O)(=O)[O-] [Example 10, (S)-3-((Z)-2-(((S)-4-(4-(1-(3-aminopropyl)-2-(azetidin-3-ylmethyl)-1H-pyrazol-2-ium-4-yl)phenoxy)-1-carboxybutoxy)imino)-2-(2-aminothiazol-4-yl)acetylamino)-2,2-dimethyl-4-oxoazetidin-1-yl Sulfate]	4 µg/mL	8 µg/mL	0.5 µg/mL	8 µg/mL	16 µg/mL	8 µg/mL	1 µg/mL	8 µg/mL	32 µg/mL
CC1(C)[C@H](NC(=O)/C(=N\O[C@@H](COc2ccc(-c3ccc4[nH]c(CN)nc4c3)cc2)C(=O)O)c2csc(N)n2)C(=O)N1OS(=O)(=O)O [Example 11, (S)-3-(4-(2-(aminomethyl)-1H-benzo[d]imidazol-5-yl)phenoxy)-2-((((Z)-1-(2-aminothiazol-4-yl)-2-(((S)-2,2-dimethyl-4-oxo-1-(sulfonyloxy)azetidin-3-yl)amino)-2-oxoethylene)amino)oxy)propionic Acid]	> 64 µg/mL	> 64 µg/mL	> 64 µg/mL	16 µg/mL (≈ 23.2 µM)	> 64 µg/mL	> 64 µg/mL	32 µg/mL (≈ 46.5 µM)	32 µg/mL (≈ 46.5 µM)	> 64 µg/mL
